≈ marks a conversion by molar mass, not a printed value. Read-outs that look alike come from different tables or passages of the source.
Experiments:
Format in all cases: physicochemical
[1] = Long-term storage stability in co-solvents PEG 300 and PEG 400
[2] = Infusion solution stability in 0.9% Sodium Chloride for Injection; details: for Change in concentration: initial vs 4 hours at ambient temperature and light
Procedure: For the infusion solution stability study, duplicate dilutions of the reconstituted Compound 1 in 0.9% Sodium Chloride for Injection, LISP to provide the low (0.01 mg/mL) and high dose (0.6 mg/mL) were prepared. Infusion bags and sets used were made of polyolefin and polyethylene-lined respectively. To bracket the concentrations to be used in the clinic, two concentrations (0.01 mg/mL and 0.6 mg/mL of Compound 1) representing lowest and highest doses were selected. The stability of low and high dose infusion bag dilution is summarized in Table 3 and Table 4, respectively.

[3] = Equilibrium solubility in various pharmaceutical excipients
[4] = Stability of reconstituted solution of the particulate composition (5 mg/mL)
Procedure: The stability of the reconstituted solution of the particulate composition of Compound 1 of Example 1 was determined up to 4 hours. Duplicate vials of Compound 1 were reconstituted each with 5 mL of Water for Injection, USP.

[5] = infusion solution 0.01 mg/mL, 4 hours
[6] = infusion solution 0.01 mg/mL, Initial
[7] = infusion solution 0.6 mg/mL, 4 hours
[8] = infusion solution 0.6 mg/mL, Initial
[9] = reconstituted solution 5 mg/mL, 4 hours
[10] = reconstituted solution 5 mg/mL, Initial
[11] = reconstituted solution, initial vs 4 hours at room temperature and light

With `CN(C)C/C=C/C(=O)Nc1ccc(C(=O)N[C@@]2(C)CCC[C@@H](Nc3ncc(Cl)c(-c4c[nH]c5ccccc45)n3)C2)nc1` [Compound 1, N-((1S,3R)-3-(5-chloro-4-(1H-indol-3-yl)pyrimidin-2-ylamino)-1-methylcyclohexyl)-5-((E)-4-(dimethylamino)but-2-enamido)picolinamide] the “Stability on long-term storage” value [1] was “unstable”, the Change in concentration ([2]; high dose (0.6 mg/mL)) was “no changes” and the Appearance [2, 5] was “Yellowish Clear solution”. The “Compound 1 concentration” value [2, 5] was 0.0099 mg/mL, the pH [2, 5] was 8.1 and the Appearance [2, 6] was “Yellowish Clear solution”. For the same molecule, the “Compound 1 concentration” value [2, 6] was 0.0096 mg/mL, the pH [2, 6] was 7.6 and the Appearance [2, 7] was “Yellowish Clear”. For the same molecule, the “Compound 1 concentration” value [2, 7] was 0.551 mg/mL, the “Impurities, RRT 1.03” value [2, 7] was “RRT 1.03 = 0.71% a/a” and the “Impurities, RRT 1.22” value [2, 7] was “RRT 1.22 = 0.06% a/a”. The “Impurities, RRT 1.43” value [2, 7] was “RRT = 1.43 = 0.51% a/a”, the “Impurities, RRT 1.60” value [2, 7] was “RRT = 1.60 = 0.08% a/a” and the “Impurities, Total” value [2, 7] was “Total = 1.4% a/a”. For the same molecule, the pH [2, 7] was 3.6, the Appearance [2, 8] was “Yellowish Clear” and the “Compound 1 concentration” value [2, 8] was 0.552 mg/mL. The “Impurities, RRT 1.03” value [2, 8] was “RRT 1.03 = 0.71% a/a”, the “Impurities, RRT 1.22” value [2, 8] was “RRT 1.22 = 0.06% a/a” and the “Impurities, RRT 1.43” value [2, 8] was “RRT = 1.43 = 0.51% a/a”. For the same molecule, the “Impurities, RRT 1.60” value [2, 8] was “RRT = 1.60 = 0.08% a/a”, the “Impurities, Total” value [2, 8] was “Total = 1.4% a/a” and the pH [2, 8] was 3.6. For the same molecule, the Change in concentration ([2]; low dose (0.01 mg/mL)) was “no changes”, the “Change in pH” value ([2]; low dose dilution (0.01 mg/mL), initial vs 4 hours) was “increase” and the solubility ([3]; 50 mM Borate pH 10) was “<LOQ”. The solubility ([3]; 50 mM KCl, pH 2, simulated gastric fluid, thermodynamic from solid, 50 mM KCl, pH 2, read-out: Solubility) was 3600 µg/mL (≈ 6.13 mM), the solubility ([3]; 50 mM Phosphate pH 8) was “<LOQ” and the solubility ([3]; 50 mM citrate, pH 4, aqueous buffer, thermodynamic from solid, 50 mM Citrate pH 4, read-out: Solubility) was 3.7 µg/mL (≈ 0.0063 mM). The solubility ([3]; 50 mM phosphate buffer, pH 6, aqueous buffer, thermodynamic from solid, 50 mM Phosphate pH 6, read-out: Solubility) was 1.9 µg/mL (≈ 0.00324 mM), the solubility ([3]; 10% Captisol in phosphate buffer, pH 5.5, aqueous with cosolvent or surfactant or cyclodextrin, thermodynamic from solid, 10% Captisol, pH 5.5 (phosphate buffer), read-out: Solubility) was 4600 µg/mL (≈ 7.83 mM) and the solubility ([3]; 20% Captisol in phosphate buffer, pH 5.5, aqueous with cosolvent or surfactant or cyclodextrin, thermodynamic from solid, 20% Captisol, pH 5.5 (phosphate buffer), read-out: Solubility) was 5900 µg/mL (≈ 10 mM). The solubility ([3]; 20% Captisol, 0.1% Tween 80, pH adjusted with HCl, pH 3.5, aqueous with cosolvent or surfactant or cyclodextrin, thermodynamic from solid, 20% Captisol, 0.1% Tween 80, pH 3.5, (HCl), read-out: Solubility) was over 10000 µg/mL, the “Solubility (in words)” value ([3]; Captisol, especially with acidic conditions (pH 3-4) and Tween 80) was “good solubility” and the solubility ([3]; PEG 300) was over 19400 µg/mL. It also gave a solubility ([3]; PEG 300, organic solvent or mixture, thermodynamic from solid, PEG 300, read-out: Solubility) of over 19000 µg/mL, a solubility ([3]; PEG 400) of over 20800 µg/mL and a solubility ([3]; PEG 400, organic solvent or mixture, thermodynamic from solid, PEG 400, read-out: Solubility) of over 19000 µg/mL. For the same molecule, the solubility ([3]; Sorensen phosphate Buffer) was “<LOQ”, the solubility ([3]; Tween 80, aqueous with cosolvent or surfactant or cyclodextrin, thermodynamic from solid, Tween 80, read-out: Solubility) was 18300 µg/mL (≈ 31.2 mM) and the solubility ([3]; dehydrated alcohol, organic solvent or mixture, thermodynamic from solid, Dehydrated Alcohol, read-out: Solubility) was 3600 µg/mL (≈ 6.13 mM). The “Solubility (in words)” value ([3]; in water) was “poorly soluble”, the solubility ([3]; propylene glycol, organic solvent or mixture, thermodynamic from solid, Propylene Glycol, read-out: Solubility) was 4000 µg/mL (≈ 6.81 mM) and the solubility ([3]; t-butanol, organic solvent or mixture, thermodynamic from solid, t-Butanol, read-out: Solubility) was 3200 µg/mL (≈ 5.45 mM). For the same molecule, the solubility ([3]; water, thermodynamic from solid, Water, read-out: Solubility) was 0.12 µg/mL (≈ 0.000204 mM), the “Compound 1 concentration” value [4, 9] was 4.48 mg/mL and the “Impurities, RRT 1.04” value [4, 9] was “RRT 1.04 = 0.70% a/a”. For the same molecule, the “Impurities, RRT 1.23” value [4, 9] was “RRT 1.23 = 0.07% a/a”, the “Impurities, RRT 1.44” value [4, 9] was “RRT 1.44 = 0.59% a/a” and the “Impurities, RRT 1.47” value [4, 9] was “RRT 1.47 = 0.42% a/a”. For the same molecule, the “Impurities, RRT 1.61” value [4, 9] was “RRT 1.61 = 0.09% a/a”, the “Impurities, Total” value [4, 9] was “Total = 1.9% a/a” and the pH [4, 9] was 3.2. For the same molecule, the Appearance ([4]; reconstituted solution 5 mg/mL, 4 hours, room temperature and light) was “Yellowish Clear solution”, the “Compound 1 concentration” value [4, 10] was 4.75 mg/mL and the “Impurities, RRT 1.04” value [4, 10] was “RRT 1.04 = 0.71% a/a”. The “Impurities, RRT 1.23” value [4, 10] was “RRT 1.23 = 0.10% a/a”, the “Impurities, RRT 1.46” value [4, 10] was “RRT 1.46 = 0.55% a/a” and the “Impurities, RRT 1.48” value [4, 10] was “RRT1.48 = 0.4 % a/a”. For the same molecule, the “Impurities, RRT 1.62” value [4, 10] was “RRT1.62 = 0.0 % a/a”, the “Impurities, Total” value [4, 10] was “Total = 1.9% a/a” and the pH [4, 10] was 3.2. The Appearance ([4]; reconstituted solution 5 mg/mL, Initial, n = 2) was “Yellowish Clear solution”, the “Change in appearance and pH” value [4, 11] was “unchanged” and the “Change in concentration of Compound 1” value [4, 11] was “slight decrease”. The Change in impurities [4, 11] was “no measurable change”.

— patent US11083728B2, “Compositions of cyclin dependent kinase 7 (CDK7) inhibitor” (Syros Pharmaceuticals, Inc., priority 2017, dated 2021)
